≈ marks a conversion by molar mass, not a printed value.
Key:
[1] = Azithromycin levels in plasma; conditions: for average azithromycin plasma level at steady state: steady state conditions; for AUC / AUC(0-t) / Cmax: human, plasma, po
Description: Plasma levels of azithromycin were determined as follows. Thirty-nine patients were randomized into one of three treatment groups. Each patient received 40 mg (n=13), 80 mg (n=11), or 120 mg (n=15) of oral azithromycin daily. After the initial dose on day 0, a second dose was not administered until 72 hours later, so as to permit measurement of plasma levels based on a single dose and determination of pharmacokinetic parameters. Blood samples from each patient were taken at times equal to 0 (before dosing), 1, 2, 3, 4, 6, 8, 24, 48, and 72 hours after the initial oral dose. Following 72 hours, each patient received azithromycin daily for the remainder of six weeks (42 days). Blood samples were also taken at times equal to 0 hours (before dosing) and 3 hours after dosing on day 21, and at times equal to 0, 1, 2, 3, 4, 6, 8, and 24 hours following the last dose given on day 42. Plasma samples obtained from the blood samples were stored at −20° C. or lower after collection until processing and analysis.
The amount of azithromycin in plasma was quantified using a validated high pressure liquid chromatographic assay with mass spectroscopy detection. Standards and samples were treated, by pipet addition, with 10.0 microliter of 1:1 acetonitrile/water. The standards and samples were then treated, by pipet addition, with 10.0 microliter of an Azaerythromycin A internal standard solution, followed by the addition of 2.0 mL of the mobile phase, which contained a 250:150:100:0.5:0.1 mixture of ethyl acetate, methanol, acetonitrile, formic acid and morpholine. After tightening Teflon caps onto the extraction jars containing the treated standards and samples, the jars were rotated for 2 hours at 1 rps. Next, 0.20 mL aliquots were removed from each jar and transferred to HPLC autosampler vials, and the vials capped and placed in the autosampler tray for LC-MS-MS analysis. A 5 microliter aliquot was injected from each vial into a suitable high pressure liquid chromatograph (HPLC) with suitable mass spectrophotometry-mass spectrometery detection, such as a Sciex API 3000 LC-MS-MS (GenTech Scientific, Inc., Arcade, N.Y.) with heated nebulizer source. The column used was PVA-Sil, 5 micron, 4.0×50 mm cartridge (Waters Corporation, Milford, Mass.). The flow rate was 1 ml/minute. To determine the amount of azithromycin, the peak area of the m/z 750→592 azithromycin product ion was measured against the peak area of the m/z 736→578 azaerythromycin A internal standard product ion.
Plasma azithromycin concentrations were tabulated for each of the subjects for each dose group 40 mg/day, 80 mg/day, and 120 mg/day, respectively. The pharmacokinetic evaluation was based on individual plasma concentration-time data of azithromycin and was performed using model-independent analysis methods within WinNonlin™ version 5.0.1 (Pharsight Corporation, Mountain View, Calif.). […] Cmax, the maximum plasma concentration, was obtained directly from the concentration-time data. AUClast, the area under the plasma concentration-time curve from time 0 to time t (the time of last quantifiable plasma concentration), was calculated using the linear trapezoidal rule from predose to the last quantifiable plasma concentration. AUC24, the area under the plasma concentration-time curve from time 0 to time t=24 hours, was calculated in a manner similar to the calculation for AUClast except from predose to 24 hours.

moderate to severe acne = experiment: Efficacy against acne (lesion counts), 40/80/120 mg per day; format: in vivo, human
Description: The subjects of Example 1 were evaluated for efficacy of each dosage (40 mg, 80 mg, or 120 mg per day) in treating moderate to severe acne following treatment for 6 weeks. Before starting the treatment protocol, the number of facial non-inflammatory lesions (open and closed comedones), inflammatory lesions (papules, pustules, and nodules), and nodules were counted. The numbers of these lesions were counted again at day 21 of treatment and at day 42. The % decrease from Day 0 was calculated as the mean of the differences for each of the parameters (non-inflammatory lesions, inflammatory lesion and nodules) for each individual subject on Day 21 and Day 42. The results, including average lesion counts and efficacy assessment by percent decrease in lesion counts, are shown for the 40 mg, 80 mg, and 120 mg group, respectively, in Tables 4, 5, and 6.

Streptococcus pyogenes = conditions: Neu 1991; cited from earlier work
[2] = 40 mg/day for 6 weeks, Day 0 (before treatment)
[3] = 80 mg/day for 6 weeks, Day 0 (before treatment)
[4] = 120 mg/day for 6 weeks, Day 0 (before treatment)

With `CC[C@H]1OC(=O)[C@H](C)[C@@H](O[C@H]2C[C@@](C)(OC)[C@@H](O)[C@H](C)O2)[C@H](C)[C@@H](O[C@@H]2O[C@H](C)C[C@H](N(C)C)[C@H]2O)[C@](C)(O)C[C@@H](C)CN(C)[C@H](C)[C@@H](O)[C@]1(C)O` [Azithromycin, 9-deoxo-9a-aza-9a-methyl-9a-homoerythromycin A] the “average maximum azithromycin plasma level” value ([1]; 40 mg/day group, after administration on day 42) was “about 16 ng/ml”, the “average maximum azithromycin plasma level” value ([1]; 40 mg/day group, after initial dose) was “about 15 ng/ml” and the “average azithromycin plasma level at steady state” value (“average azithromycin plasma level” for short) ([1]; 40 mg/day group) was “about 4 ng/ml”. The “average maximum azithromycin plasma level” value ([1]; 80 mg/day group, after administration on day 42) was ~54 ng/mL, the “average maximum azithromycin plasma level” value ([1]; 80 mg/day group, after initial dose) was ~59 ng/mL and the “average azithromycin plasma level” value ([1]; 80 mg/day group) was ~10 ng/mL. For the same compound, the “average maximum azithromycin plasma level” value ([1]; 120 mg/day group, after administration on day 42) was ~68 ng/mL, the “average maximum azithromycin plasma level” value ([1]; 120 mg/day group, after initial dose) was ~45 ng/mL and the “average azithromycin plasma level” value ([1]; 120 mg/day group) was ~22 ng/mL. The “maximum plasma concentration compared with MIC” value ([1]; day 0 and day 42, all dosages tested) was “less than the MIC of azithromycin for P. acnes”, the AUC ([1]; 40 mg) was 44.7 ng·h/mL and the AUC(0-t) ([1]; 40 mg) was 73.4 ng·h/mL. The Cmax ([1]; 40 mg) was 7.08 ng/mL, the AUC ([1]; 40 mg/day) was 132 ng·h/mL and the Cmax ([1]; 40 mg/day) was 13.8 ng/mL. It also gave an AUC ([1]; 80 mg) of 294 ng·h/mL, an AUC(0-t) ([1]; 80 mg) of 456 ng·h/mL and a Cmax ([1]; 80 mg) of 60.3 ng/mL. For the same compound, the AUC ([1]; 80 mg/day) was 528 ng·h/mL, the Cmax ([1]; 80 mg/day) was 53.9 ng/mL and the AUC ([1]; 120 mg) was 293 ng·h/mL. For the same compound, the AUC(0-t) ([1]; 120 mg) was 433 ng·h/mL, the Cmax ([1]; 120 mg) was 57.9 ng/mL and the AUC ([1]; 120 mg/day) was 752 ng·h/mL. For the same compound, the Cmax ([1]; 120 mg/day) was 92.9 ng/mL, the “time of peak average plasma level” value ([1]; post administration of initial dose, each treatment group) was 3 h and the “Inflammatory lesions (average count)” value (moderate to severe acne; [2]) was 30.1. For the same compound, the “Nodules (average count)” value (moderate to severe acne; [2]) was 5.2, the “Non-inflammatory lesions (average count)” value (moderate to severe acne; [2]) was 36.5 and the “Inflammatory lesions % Decrease from Day 0” value (moderate to severe acne; 40 mg/day for 6 weeks, Day 21) was 51.5%. For the same compound, the “Inflammatory lesions (average count)” value (moderate to severe acne; 40 mg/day for 6 weeks, Day 21) was 14.4, the “Nodules % Decrease from Day 0” value (moderate to severe acne; 40 mg/day for 6 weeks, Day 21) was 62.4% and the “Nodules (average count)” value (moderate to severe acne; 40 mg/day for 6 weeks, Day 21) was 2.2. For the same compound, the “Non-inflammatory lesions % Decrease from Day 0” value (moderate to severe acne; 40 mg/day for 6 weeks, Day 21) was 30.4%, the “Non-inflammatory lesions (average count)” value (moderate to severe acne; 40 mg/day for 6 weeks, Day 21) was 23.9 and the “Inflammatory lesions % Decrease from Day 0” value (moderate to severe acne; 40 mg/day for 6 weeks, Day 42) was 54.2%. For the same compound, the “Inflammatory lesions (average count)” value (moderate to severe acne; 40 mg/day for 6 weeks, Day 42) was 13.8, the “Nodules % Decrease from Day 0” value (moderate to severe acne; 40 mg/day for 6 weeks, Day 42) was 82.2% and the “Nodules (average count)” value (moderate to severe acne; 40 mg/day for 6 weeks, Day 42) was 1.2. The “Non-inflammatory lesions % Decrease from Day 0” value (moderate to severe acne; 40 mg/day for 6 weeks, Day 42) was 38.9%, the “Non-inflammatory lesions (average count)” value (moderate to severe acne; 40 mg/day for 6 weeks, Day 42) was 21.5 and the “Inflammatory lesions (average count)” value (moderate to severe acne; [3]) was 37.0. The “Nodules (average count)” value (moderate to severe acne; [3]) was 5.5, the “Non-inflammatory lesions (average count)” value (moderate to severe acne; [3]) was 38.7 and the “Inflammatory lesions % Decrease from Day 0” value (moderate to severe acne; 80 mg/day for 6 weeks, Day 21) was 44.7%. The “Inflammatory lesions (average count)” value (moderate to severe acne; 80 mg/day for 6 weeks, Day 21) was 19.8, the “Nodules % Decrease from Day 0” value (moderate to severe acne; 80 mg/day for 6 weeks, Day 21) was 72.8% and the “Nodules (average count)” value (moderate to severe acne; 80 mg/day for 6 weeks, Day 21) was 1.5. The “Non-inflammatory lesions % Decrease from Day 0” value (moderate to severe acne; 80 mg/day for 6 weeks, Day 21) was 34.7%, the “Non-inflammatory lesions (average count)” value (moderate to severe acne; 80 mg/day for 6 weeks, Day 21) was 24.9 and the “Inflammatory lesions % Decrease from Day 0” value (moderate to severe acne; 80 mg/day for 6 weeks, Day 42) was 53.7%. For the same compound, the “Inflammatory lesions (average count)” value (moderate to severe acne; 80 mg/day for 6 weeks, Day 42) was 17.0, the “Nodules % Decrease from Day 0” value (moderate to severe acne; 80 mg/day for 6 weeks, Day 42) was 74.2% and the “Nodules (average count)” value (moderate to severe acne; 80 mg/day for 6 weeks, Day 42) was 1.3. The “Non-inflammatory lesions % Decrease from Day 0” value (moderate to severe acne; 80 mg/day for 6 weeks, Day 42) was 24.7%, the “Non-inflammatory lesions (average count)” value (moderate to severe acne; 80 mg/day for 6 weeks, Day 42) was 29.3 and the “Inflammatory lesions (average count)” value (moderate to severe acne; [4]) was 31.6. For the same compound, the “Nodules (average count)” value (moderate to severe acne; [4]) was 4.7, the “Non-inflammatory lesions (average count)” value (moderate to severe acne; [4]) was 37.7 and the “Inflammatory lesions % Decrease from Day 0” value (moderate to severe acne; 120 mg/day for 6 weeks, Day 21) was 51.9%. The “Inflammatory lesions (average count)” value (moderate to severe acne; 120 mg/day for 6 weeks, Day 21) was 15.6, the “Nodules % Decrease from Day 0” value (moderate to severe acne; 120 mg/day for 6 weeks, Day 21) was 78.6% and the “Nodules (average count)” value (moderate to severe acne; 120 mg/day for 6 weeks, Day 21) was 1.0. For the same compound, the “Non-inflammatory lesions % Decrease from Day 0” value (moderate to severe acne; 120 mg/day for 6 weeks, Day 21) was 28.1%, the “Non-inflammatory lesions (average count)” value (moderate to severe acne; 120 mg/day for 6 weeks, Day 21) was 27.8 and the “Inflammatory lesions % Decrease from Day 0” value (moderate to severe acne; 120 mg/day for 6 weeks, Day 42) was 52.9%. The “Inflammatory lesions (average count)” value (moderate to severe acne; 120 mg/day for 6 weeks, Day 42) was 14.8, the “Nodules % Decrease from Day 0” value (moderate to severe acne; 120 mg/day for 6 weeks, Day 42) was 73.7% and the “Nodules (average count)” value (moderate to severe acne; 120 mg/day for 6 weeks, Day 42) was 1.1. The “Non-inflammatory lesions % Decrease from Day 0” value (moderate to severe acne; 120 mg/day for 6 weeks, Day 42) was 38.9%, the “Non-inflammatory lesions (average count)” value (moderate to severe acne; 120 mg/day for 6 weeks, Day 42) was 23.2 and the “number of inflammatory acne lesions” value (moderate to severe acne; any of 40, 80, or 120 mg per day, at 21 days and at 42 days) was “marked decrease”. The “number of facial nodules” value (moderate to severe acne; any of 40, 80, or 120 mg, at both 21 and 42 days) was “marked decrease”, the “response of non-inflammatory acne lesions” value (moderate to severe acne; daily treatment at each dosage level tested, 40, 80, or 120 mg) was “responded favorably” and the “resolution of existing nodules” value (moderate to severe acne; examination at 21 days after initiation of treatment, daily administration) was “Complete resolution of existing nodules in several subjects”. The “MIC90 against Streptococcus pyogenes” value (Streptococcus pyogenes) was 0.12 µg/mL (≈ 0.16 µM).

Reference: patent publication US8143227B2, “Azithromycin for treatment of skin disorders” (priority 2008, dated 2012)
